Drawing on patent US20100144672A1, “PYRIMIDINYL PYRAZOLES AS INSECTICIDES AND PARASITICIDE ACTIVE AGENTS” (BAYER CROPSCIENCE AG, priority 2006, published 2010), this text covers pest or weed control for 13 compounds.

Type in all cases: in vivo
Assay [1] relates to larvae of the mustard beetle (Phaedon cochleariae). As to the kind of experiment: Phaedon test (PHAECO spray treatment). Particulars: 168 h, application rate 500 g/ha, after 7 d, read-out: activity (effect in %, beetle larvae killed). The procedure:
Phaedon Test ([…] Spray Treatment) [table] To produce a suitable preparation of active compound, 1 part by weight of active compound is mixed with the stated amounts of solvents and emulsifier, and the concentrate is diluted with emulsifier-containing water to the desired concentration. Discs of chinese cabbage (Brassica pekinensis) are sprayed with an active compound preparation of the desired concentration and, after drying, populated with larvae of the mustard beetle (Phaedon cochleariae). After the desired period of time, the effect in % is determined 100% means that all beetle larvae have been killed; 0% means that none of the beetle larvae have been killed.

Assay [2] has as its system caterpillars of the army worm (Spodoptera frugiperda). As to the kind of experiment: Spodoptera frugiperda test (SPODFR spray treatment). The conditions noted are these: 168 h, application rate 500 g/ha, after 7 d, read-out: activity (effect in %, caterpillars killed). The procedure:
Spodoptera frugiperda Test (SPODFR Spray Treatment) [table] To produce a suitable preparation of active compound, 1 part by weight of active compound is mixed with the stated amounts of solvents and emulsifier, and the concentrate is diluted with emulsifier-containing water to the desired concentration. Discs of maize leaves (Zea mays) are sprayed with an active compound preparation of the desired concentration and, after drying, populated with caterpillars of the army worm (Spodoptera frugiperda). After the desired period of time, the effect in % is determined 100% means that all caterpillars have been killed; 0% means that none of the caterpillars have been killed.

In assay [3] the test system is Lucilia cuprina larvae. Nature of the assay: Lucilia cuprina test (LUCICU). Particulars: 48 h, application rate 100 ppm, after 2 d, treated horse meat, read-out: activity (kill in %, larvae). As for the experimental part: Lucilia cuprina Test (LUCICU) Solvent: dimethyl sulphoxide To produce a suitable preparation of active compound, 1 part by weight of active compound is mixed with the stated amount of water, and the concentrate is diluted with water to the desired concentration. Containers containing horse meat treated with the active compound preparation of the desired concentration are populated with Lucilia cuprina larvae. After the desired period of time, the kill in % is determined 100% means that all larvae have been killed; 0% means that none of the larvae have been killed.

Take `CC(=O)N(C(C)=O)c1c(-c2ccc(Cl)c(Cl)c2)c(C(F)(F)F)nn1-c1ncccn1` [Example 29-37, N,N-diacetyl-4-(3,4-dichlorophenyl)-1-pyrimidin-2-yl-3-(trifluoromethyl)-1H-pyrazole-5-amine]: the pest or weed control at 500 g/ha in assay [1] and in assay [2] was not below 80% in each case.
On to `Nc1c(-c2ccc(Br)cc2)c(C(F)(F)F)nn1-c1ncccn1` [Example 1-9, 4-(4-bromophenyl)-1-pyrimidin-2-yl-3-(trifluoromethyl)-1H-pyrazole-5-amine], for which the pest or weed control at 500 g/ha in assay [1] and in assay [2] was not below 80% each time. For the same compound, the pest or weed control at 100 ppm in assay [3] was not below 80%.
Take `Nc1c(-c2cc(Cl)cc(C(F)(F)F)c2)c(C(F)(F)F)nn1-c1ncccn1` [Example 3-25, 4-(3-chloro-5-trifluoromethylphenyl)-2-pyrimidin-2-yl-5-trifluoromethyl-2H-pyrazol-3-ylamine]: the pest or weed control at 500 g/ha in assay [1] and in assay [2] was not below 80% in each case. Further, the pest or weed control at 100 ppm in assay [3] is not below 80%.
Regarding `COc1ccc(-c2c(C(F)(F)F)nn(-c3ncccn3)c2N)cc1` [Example 5-22], in assay [1], the pest or weed control at 500 g/ha is not below 80%. In addition, the pest or weed control at 100 ppm in assay [3] is not below 80%.
Consider `Nc1c(-c2ccc(Cl)cc2)c(C(F)(F)F)nn1-c1ncccn1` [Example 1-6, 4-(4-chlorophenyl)-1-pyrimidin-2-yl-3-(trifluoromethyl)-1H-pyrazole-5-amine], for which the pest or weed control at 500 g/ha in assay [1] and in assay [2] was not below 80% throughout. Also, the pest or weed control at 100 ppm in assay [3] is not below 80%.
For `Nc1c(-c2ccc(F)c(Cl)c2)c(C(F)(F)F)nn1-c1ncccn1` [Example 1-79, 4-(3-chloro-4-fluorophenyl)-1-pyrimidin-2-y1-3-(trifluoromethyl)-1H-pyrazole-5-amine], the pest or weed control at 500 g/ha in assay [1] and in assay [2] was not below 80% each time. Further, the pest or weed control at 100 ppm in assay [3] is not below 80%.
Regarding `Nc1c(-c2ccc(SC(F)(F)F)cc2)c(C(F)(F)F)nn1-c1ncccn1` [Example 5-62], the pest or weed control at 500 g/ha in assay [1] was not below 80%. Besides, the pest or weed control at 100 ppm in assay [3] is not below 80%.
On to `Nc1c(-c2cccc([N+](=O)[O-])c2)c(C(F)(F)F)nn1-c1ncccn1` [Example 6-78], for which the pest or weed control at 500 g/ha in assay [1] and in assay [2] was not below 80% each time.
Turning to `CCNc1c(-c2ccc(Cl)cc2)c(C(F)(F)F)nn1-c1ncccn1` [Example 12-7, 4-(4-chlorophenyl)-N-ethyl-l-pyrimidin-2-yl-3-(trifluoromethyl)-1H-pyrazole-5-amine], the pest or weed control at 500 g/ha in assay [1] and in assay [2] was not below 80% each time. Also, the pest or weed control at 100 ppm in assay [3] was not below 80%.
On to `Nc1c(-c2ccc(Cl)c(Cl)c2)c(C(F)(F)F)nn1-c1ncccn1` [Example 1-80, 4-(3,4-dichlorophenyl)-1-pyrimidin-2-yl-3-(trifluoromethyl)-1H-pyrazole-5-amine], for which the pest or weed control at 500 g/ha in assay [1] and in assay [2] was not below 80% throughout. The pest or weed control at 100 ppm in assay [3] is not below 80%.
For `FC(F)(F)c1nn(-c2ncccn2)c(Cl)c1-c1ccc(Cl)cc1` [Example 14-7], the pest or weed control at 500 g/ha in assay [1] and in assay [2] was not below 80% in each case. Moreover, the pest or weed control at 100 ppm in assay [3] is not below 80%.
Turning to `N#Cc1cccc(-c2c(C(F)(F)F)nn(-c3ncccn3)c2N)c1` [Example 6-70], the pest or weed control at 500 g/ha in assay [1] and in assay [2] was not below 80% throughout.
Regarding `Nc1c(-c2ccc(Cl)c(Br)c2)c(C(F)(F)F)nn1-c1ncccn1` [Example 1-87, 4-(3-bromo-4-chlorophenyl)-2-pyrimidin-2-yl-5-(trifluoromethyl)-2H-pyrazol-3-ylamine], the pest or weed control at 500 g/ha in assay [1] and in assay [2] was not below 80% each time.
